From patent US11919860B1 (priority 2023, dated 2024) come the findings set out here.

The structures appear in SMILES notation.

The test system of the test is Mycobacterium tuberculosis H37Rv (ATCC: 25177). The test is described as follows: Anti-tubercular activity, colorimetric Resazurin Microplate Assay (REMA). As to conditions: 192 h, read-out: Anti-tubercular activity against Mycobacterium tuberculosis H37Rv (MIC). It is filed as cell-based.

Broadly, the MIC is the lowest concentration that inhibits growth of the organism. Turning to `CC(C)OC(=O)c1cc[n+](CC(=O)c2ccccc2)cc1.[Br-]` [Compound 4a, 4-(Isopropoxycarbonyl)-1-(2-oxo-2-phenylethyl)pyridin-1-ium Bromide], the MIC worked out at 0.5 µg/mL.
Take `CC(C)OC(=O)c1cc[n+](CC(=O)c2ccc(F)cc2)cc1.[Br-]` [Compound 4b, 1-(2-(4-Fluorophenyl)-2-oxoethyl)-4-(isopropoxycarbonyl)pyridin-1-ium bromide]: the MIC was 1 µg/mL.
